# Read-outs that look alike come from different tables or passages of the source.
# Tests used:
# [1] = tested on: rat liver cells; experiment: Hepatic necrocytosis induced by carbon tetrachloride (in vitro), trypan blue exclusion test; type: cell-based
# Description: Liver cells were prepared according to a method disclosed in Nakamura et al "Proteins, Nucleic Acids, and Enzymes" Vol. 24, pages 55-76 (1981). That is, the rat liver cells, which were previously peritoneally treated with phenobarbital at 80 mg/kg/day for 3 days, were collected by centrifugal separation after being subjected to 0.05% collagenase perfusion.
# The liver cells thus obtained were suspended in a William's E culture medium containing 10% fetal calf serum, dexamethasone (10^-6 M) and insulin (0.02 unit/ml). A 3 ml amount of the cell dispersion having a cell content of 5 x 10^S cells/ml was placed in a 25 mm Falcon dish and was then incubated at a temperature of 37°C under an atmosphere of 5% C02 and 95% air for 3 hours. After 3 hours incubation, the number of surviving liver cells in the incubated dish was measured according to a trypan blue exclusion test. The average value thereof was used as a control value for the survival percentage of the liver cells in the pre-incubation.
# Then, a culture medium containing 2-[2-(3-heptyl-4-methyl-4-thiazolin-2-ylidene) methyll-3-heptyl thiazolinium iodide (i.e., pionin) dissolved in ethanol was substituted after removing non-adhesive cells and was then incubated for a further one hour. The concentrations of pionin in the culture medium were 0.94 x 10^-6, 1.8x10^-7, 1x10^-8, 1x10^-9, and I x 10^-10 mole and, as a control or comparative test, the culture medium itself, the culture medium containing 0.5% of ethanol, and the culture medium containing 0.25 µm/ml of carbon tetrachloride were used.
# Then, 0.25 pm/ml of carbon tetrachloride was added to each culture dish and the incubation was carried out for a further 3 hours under the same conditions mentioned above. No further carbon tetrachloride was added to the comparative culture containing carbon tetrachloride. After 3 hours incubation, the number of survival liver cells was measured according to a trypan blue exclusion test. The percentage ratio of the mean survival number to the survival number of the above-mentioned pre-incubation was then calculated.
# The results are shown in Table 1, in which the mean survival cell percentage (%) and standard deviation thereof in the culture dish containing 4 to 29 liver cells (i.e., N). Statistical significance was evaluated by Student's t-test.
# [2] = tested on: hepatic necrocytosis induced by carbon tetrachloride; experiment: Hepatic necrocytosis induced by carbon tetrachloride (in vivo), serum GOT and GPT; design: species or system SD male rats; conditions: for Enzyme Activity GOT (U/L) / Enzyme Activity GPT (U/L): 6 administrations, CCl4 0.5 ml/kg i.p.
# Description: In the evaluation tests, 6 weeks old SD male rats were used. […] The rats were freely fed or supplied with a solid feed and drinking water.
# Carbon tetrachloride (CC14) was diluted with an olive oil and was peritoneally injected in each rat at a dosage of 0.5 ml/kg. To the control group, only CC14 diluted with the olive oil and a 5% gum arabic solution containing no active ingredient were administered. Furthermore, only the olive oil but no CC14 was administered to the olive oil injection group in the Tables.
# The methincyanine compounds listed in Tables 4 to 6 were administered as follows. Methincyanine compounds were diluted 100 times with dextrose dissolved in 5% gum arabic solutions. The administration schedules were such that the methiocyanine compounds were administered 6 times in total from 5 days before the CC14 injection to the day of the injection.
# Blood was sampled from the orbital veniplex of the rat and was allowed to stand at room temperature for one hour. The blood sample was then centrifugally separated at 2800 rpm for 10 minutes. The resultant supernatant was used as a serum sample.
# The determination of GOT and GPT in the serum sample was carried out by using a determination kit (available from Boeklinger-Yamanouchi Co.) and the results were recorded in an automatic analyzer (available from FLEXIGEM Co.).
# [3] = tested on: rats; conditions: oral, cited from earlier work
# [4] = tested on: hepatic disorders induced by D-galactosamine; experiment: Hepatic disorders induced by D-galactosamine in rats (serum GOT, GPT, bilirubin, complement value); type: in vivo, Wister male rats; conditions: for Bilirubin / Complement value (%) / Enzyme activity GOT (K.U.) / Enzyme activity GPT (K.U.): GalN 250 mg/kg i.p., serum two days after GalN
# [5] = Table 2, intravenous, 0.1 µg/kg
# [6] = Table 2, intravenous, 0.5 µg/kg
structure (smiles),measurement,setting,value
"CCCCCCCN1C(C)=CSC1=Cc1scc(C)[n+]1CCCCCCC [Pionin, 2-[2-(3-heptyl-4-methyl-4-thiazolin-2-ylidene)methyl]-3-heptyl-4-methyl thiazolinium iodide]",viability at 0.94 µM,"[1]; Rattus norvegicus, CCl4 + Pionin 0.94 x 10^-6 M, 3 hours after CCl4, mean ± standard deviation, read-out: Survival ratio (%)",43.6 ± 11.6%
same,viability at 0.01 µM,"[1]; Rattus norvegicus, CCl4 + Pionin 1 x 10^-8 M, 3 hours after CCl4, mean ± standard deviation, read-out: Survival ratio (%)",63.5 ± 19%
same,viability at 0.001 µM,"[1]; Rattus norvegicus, CCl4 + Pionin 1 x 10^-9 M, 3 hours after CCl4, mean ± standard deviation, read-out: Survival ratio (%)",63.4 ± 6.8%
same,viability at 0.0001 µM,"[1]; Rattus norvegicus, CCl4 + Pionin 1 x 10^-10 M, 3 hours after CCl4, mean ± standard deviation, read-out: Survival ratio (%)",63.2 ± 23%
same,viability at 0.18 µM,"[1]; Rattus norvegicus, CCl4 + Pionin 1.8 x 10^-7 M, 3 hours after CCl4, mean ± standard deviation, read-out: Survival ratio (%)",47.1 ± 8.1%
same,inhibiting liver necrocytosis (result in words),"[1]; in vitro, summary of Table 1",has an activity capable of inhibiting liver necrocytosis
same,Enzyme Activity GOT (U/L),"[2]; Table 4, oral, 1 µg/kg",678.3 ± 76.5 U/L
same,Enzyme Activity GPT (U/L),"[2]; Table 4, oral, 1 µg/kg",209.0 ± 31.2 U/L
same,Enzyme Activity GOT (U/L),"[2]; Table 4, oral, 3 µg/kg",754.5 ± 108.8 U/L
same,Enzyme Activity GPT (U/L),"[2]; Table 4, oral, 3 µg/kg",269.7 ± 50.3 U/L
same,Enzyme Activity GOT (U/L),"[2]; Table 4, oral, 10 µg/kg",559.2 ± 56.6 U/L
same,Enzyme Activity GPT (U/L),"[2]; Table 4, oral, 10 µg/kg",165.8 ± 25.9 U/L
same,Enzyme Activity GOT (U/L),"[2]; Table 4, oral, 30 µg/kg",946.8 ± 110.6 U/L
same,Enzyme Activity GPT (U/L),"[2]; Table 4, oral, 30 µg/kg",311.4 ± 49.4 U/L
same,Enzyme Activity GOT (U/L),"[2]; Table 6, oral, 10 µg/kg",807 ± 172 U/L
same,Enzyme Activity GPT (U/L),"[2]; Table 6, oral, 10 µg/kg",251 ± 83 U/L
same,inhibiting liver necrocytosis induced by CCl4 (result in words),"[2]; in vivo, summary of Tables 4 to 6",has an activity capable of inhibiting liver necrocytosis induced by CCl4
same,LD50,[3]; female rats,503 mg/kg
same,LD50,[3]; male rats,460 mg/kg
same,Bilirubin,[4]; [5],0.51 mg/dL
same,Complement value (%),[4]; [5],88.2%
same,Enzyme activity GOT (K.U.),[4]; [5],550 ± 160 K.U.
same,Enzyme activity GPT (K.U.),[4]; [5],510 ± 62 K.U.
same,Bilirubin,[4]; [6],0.35 mg/dL
same,Complement value (%),[4]; [6],96.6%
same,Enzyme activity GOT (K.U.),[4]; [6],420 ± 30 K.U.
same,Enzyme activity GPT (K.U.),[4]; [6],300 ± 55 K.U.
same,Bilirubin,"[4]; Table 2, intravenous, 1 µg/kg",0.44 mg/dL
same,Complement value (%),"[4]; Table 2, intravenous, 1 µg/kg",91.2%
same,Enzyme activity GOT (K.U.),"[4]; Table 2, intravenous, 1 µg/kg",780 ± 29 K.U.
same,Enzyme activity GPT (K.U.),"[4]; Table 2, intravenous, 1 µg/kg",600 ± 40 K.U.
same,Bilirubin,"[4]; Table 2, intravenous, 10 µg/kg",0.77 mg/dL
same,Complement value (%),"[4]; Table 2, intravenous, 10 µg/kg",87.6%
same,Enzyme activity GOT (K.U.),"[4]; Table 2, intravenous, 10 µg/kg",1036 ± 50 K.U.
same,Enzyme activity GPT (K.U.),"[4]; Table 2, intravenous, 10 µg/kg",980 ± 39 K.U.
same,Bilirubin,"[4]; Table 3, oral, 0.1 µg/kg",0.77 mg/dL
same,Complement value (%),"[4]; Table 3, oral, 0.1 µg/kg",86.1%
same,Enzyme activity GOT (K.U.),"[4]; Table 3, oral, 0.1 µg/kg",1200 ± 198 K.U.
same,Enzyme activity GPT (K.U.),"[4]; Table 3, oral, 0.1 µg/kg",1003 ± 87 K.U.
same,Bilirubin,"[4]; Table 3, oral, 0.5 µg/kg",0.36 mg/dL
same,Complement value (%),"[4]; Table 3, oral, 0.5 µg/kg",91.1%
same,Enzyme activity GOT (K.U.),"[4]; Table 3, oral, 0.5 µg/kg",622 ± 100 K.U.
same,Enzyme activity GPT (K.U.),"[4]; Table 3, oral, 0.5 µg/kg",550 ± 51 K.U.
same,Bilirubin,"[4]; Table 3, oral, 1 µg/kg",0.55 mg/dL
same,Complement value (%),"[4]; Table 3, oral, 1 µg/kg",92.3%
same,Enzyme activity GOT (K.U.),"[4]; Table 3, oral, 1 µg/kg",710 ± 30 K.U.
same,Enzyme activity GPT (K.U.),"[4]; Table 3, oral, 1 µg/kg",440 ± 13 K.U.
same,Bilirubin,"[4]; Table 3, oral, 10 µg/kg",0.88 mg/dL
same,Complement value (%),"[4]; Table 3, oral, 10 µg/kg",88.8%
same,Enzyme activity GOT (K.U.),"[4]; Table 3, oral, 10 µg/kg",1350 ± 136 K.U.
same,Enzyme activity GPT (K.U.),"[4]; Table 3, oral, 10 µg/kg",1200 ± 188 K.U.
same,inhibition of liver disorders induced by D-galactosamine (result in words),[4]; summary of Tables 2 and 3,can inhibit liver disorders induced by D-galactosamine
